US20230365542A1, “Selective Agonists of 5-HT2A Receptor and Methods of Use” (Yale University, priority 2020, published 2023)
“Also recorded” adds a separate entry of the source. Where two headings read alike, the source gives them in different places.

How the values were obtained:
C57BL/6J mice [1] = assay: Head twitch response (HTR) in mice; format: in vivo; conditions: first 30 min after injection (i.p.)
Description: (§1) Open field: this apparatus has been described in the literature (Acta Crystallographica Section D, 2010, 66:486-501). Mice were placed into the open field for 30 min, injected with vehicle, (+)-LSD-(+)-tartrate (NIDA Drug Supply Program, Bethesda, MID), 38, or 33 (i.p.), and returned immediately to the open field for 30 min. Locomotion was monitored using Fusion Integra software (Omnitech, Columbus, OH).
Head twitch response: HTRs were filmed in the open field and were scored following drug administration for 30 min as described in the literature (Acta Crystallographica Section D, 2019, 75:861-877).
(§2) Statistics: Statistical analyses were performed with IBM SPSS Statistics 27 programs (IBM, Chicago, IL). The data are presented as means and standard errors of the mean. No sex effects were detected. One- or two-way ANOVA or repeated measures ANOVA (RMANOVA) were used, followed by Bonferroni corrected post-hoc analyses. A p<0.05 was considered significant. All behavioral results were plotted using GraphPad Prism.

C57BL/6J mice [2] = assay: Open field locomotion in mice; format: in vivo; conditions: i.p.
Description: as §1, §2

5-HT2CR [3] = molecular target: T1, 5-HT2CR (Homo sapiens, UniProt P28335); assay: Calcium flux assay (FLIPR, Fluo-4), 5-HT2CR stable cell line; format: cell-based; conditions: for 5-HT2CR Rmax ± S.E.M: value in parentheses
T1 sequence (P28335 33-458): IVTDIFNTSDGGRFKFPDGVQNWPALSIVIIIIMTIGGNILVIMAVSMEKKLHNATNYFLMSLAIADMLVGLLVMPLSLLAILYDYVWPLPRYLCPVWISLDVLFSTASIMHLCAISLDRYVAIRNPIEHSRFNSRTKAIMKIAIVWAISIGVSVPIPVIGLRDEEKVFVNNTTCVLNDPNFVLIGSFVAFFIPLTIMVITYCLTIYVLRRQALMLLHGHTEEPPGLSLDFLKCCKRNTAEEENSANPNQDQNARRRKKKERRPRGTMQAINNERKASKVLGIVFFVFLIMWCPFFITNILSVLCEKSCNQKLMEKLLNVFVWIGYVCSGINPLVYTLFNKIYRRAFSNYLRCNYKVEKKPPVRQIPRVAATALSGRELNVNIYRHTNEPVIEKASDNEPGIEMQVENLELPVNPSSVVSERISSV
Description: Stable cell lines for 5-HT2AR, 5-HT2BR and 5-HT2CR generated using the Flp-In 293 T-Rex Tetracycline inducible system (Invitrogen). Tetracycline-induced cells were seeded in 384-well poly-L-lysine plates at a density of 10,000 cells/well in DMEM containing 1% dialyzed FBS at least 16-24 hr before the calcium flux assay. On the day of the assay, the cells were incubated (20 ul/well) for 1 hr at 37° C. with Fluo-4 Direct dye (Invitrogen) reconstituted in FLIPR buffer (1×HBSS, 2.5 mM probenecid, and 20 mM HEPES, pH 7.4). After dye loading, cells were placed in a FLIPR^TETRA fluorescence imaging plate reader (Molecular Dynamics). Drug dilutions were prepared at 3× final concentration in drug buffer (1×HBSS, 20 mM HEPES, 0.1% BSA, 0.01% ascorbic acid, pH 7.4) and aliquoted into 384-well plates and placed in the FLIPR^TETRA for drug stimulation. The fluidics module and plate reader of the FLIPR^TETRA were programmed to read baseline fluorescence for 10s (1 read/s), then 10 ul of drug/well was added and read for 5 min (1 read/s). Fluorescence in each well was normalized to the average of the first 10 reads (i.e., baseline fluorescence). Then, the maximum-fold increase, which occurred within the first 60 s after drug addition, was determined and fold over baseline was plotted as a function of drug concentration. Data were normalized to % 5-HT stimulation and analyzed using “log(agonist) vs. response” in GraphPad Prism 9.0.

5-HT2BR [4] = molecular target: T2, 5-HT2BR (Homo sapiens, UniProt P41595); assay: Calcium flux assay (FLIPR, Fluo-4), 5-HT2BR stable cell line; format: cell-based; conditions: for EC50: read-out: 5-HT2BR EC50; for 5-HT2BR Rmax ± S.E.M: value in parentheses
T2 construct: expressed in transfected cells; host or cells: Flp-In 293 T-Rex (tetracycline inducible)
T2 sequence (P41595 whole entry): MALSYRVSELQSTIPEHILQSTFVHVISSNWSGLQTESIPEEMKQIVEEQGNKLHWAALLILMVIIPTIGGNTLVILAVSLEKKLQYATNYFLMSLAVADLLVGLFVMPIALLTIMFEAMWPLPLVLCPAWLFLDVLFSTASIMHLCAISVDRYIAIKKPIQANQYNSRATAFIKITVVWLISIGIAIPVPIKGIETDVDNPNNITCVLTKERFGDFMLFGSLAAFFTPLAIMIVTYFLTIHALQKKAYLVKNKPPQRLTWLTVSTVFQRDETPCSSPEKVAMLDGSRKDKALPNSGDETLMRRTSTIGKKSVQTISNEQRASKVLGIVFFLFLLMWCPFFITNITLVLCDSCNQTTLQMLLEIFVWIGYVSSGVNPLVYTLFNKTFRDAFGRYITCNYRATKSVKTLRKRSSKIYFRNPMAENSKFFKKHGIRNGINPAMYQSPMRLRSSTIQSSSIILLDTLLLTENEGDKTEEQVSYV
Description: Stable cell lines for 5-HT2AR, 5-HT2BR and 5-HT2CR generated using the Flp-In 293 T-Rex Tetracycline inducible system (Invitrogen). Tetracycline-induced cells were seeded in 384-well poly-L-lysine plates at a density of 10,000 cells/well in DMEM containing 1% dialyzed FBS at least 16-24 hr before the calcium flux assay. On the day of the assay, the cells were incubated (20 ul/well) for 1 hr at 37° C. with Fluo-4 Direct dye (Invitrogen) reconstituted in FLIPR buffer (1×HBSS, 2.5 mM probenecid, and 20 mM HEPES, pH 7.4). After dye loading, cells were placed in a FLIPR^TETRA fluorescence imaging plate reader ([…]). Drug dilutions were prepared at 3× final concentration in drug buffer (1×HBSS, 20 mM HEPES, 0.1% BSA, 0.01% ascorbic acid, pH 7.4) and aliquoted into 384-well plates and placed in the FLIPR^TETRA for drug stimulation. The fluidics module and plate reader of the FLIPR^TETRA were programmed to read baseline fluorescence for 10s (1 read/s), then 10 ul of drug/well was added and read for 5 min (1 read/s). Fluorescence in each well was normalized to the average of the first 10 reads (i.e., baseline fluorescence). Then, the maximum-fold increase, which occurred within the first 60 s after drug addition, was determined and fold over baseline was plotted as a function of drug concentration. Data were normalized to % 5-HT stimulation and analyzed using “log(agonist) vs. response” in GraphPad Prism 9.0.

5-HT2CR [5] = molecular target: T1, 5-HT2CR; assay: 5-HT2CR binding affinity (Ki), Table 8
5-HT2AR [6] = molecular target: T3, 5-HT2AR (Homo sapiens, UniProt P28223); assay: 5-HT2AR binding affinity (Ki), Table 8
T3 construct: expressed in transfected cells; host or cells: Flp-In 293 T-Rex (tetracycline inducible)
T3 sequence (P28223 whole entry): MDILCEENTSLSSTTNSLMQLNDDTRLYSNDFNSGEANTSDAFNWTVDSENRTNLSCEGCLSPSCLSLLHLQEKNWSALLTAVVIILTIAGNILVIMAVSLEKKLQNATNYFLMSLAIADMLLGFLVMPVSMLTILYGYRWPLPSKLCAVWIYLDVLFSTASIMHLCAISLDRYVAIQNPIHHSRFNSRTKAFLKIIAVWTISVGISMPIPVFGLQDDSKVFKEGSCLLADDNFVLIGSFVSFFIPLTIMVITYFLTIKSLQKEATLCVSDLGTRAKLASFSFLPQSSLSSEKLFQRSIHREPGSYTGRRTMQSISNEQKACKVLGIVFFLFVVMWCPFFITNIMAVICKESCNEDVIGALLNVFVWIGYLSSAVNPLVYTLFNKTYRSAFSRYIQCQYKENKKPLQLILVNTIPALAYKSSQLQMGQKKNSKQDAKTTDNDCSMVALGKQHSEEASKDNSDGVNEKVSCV

5-HT2BR [7] = molecular target: T2, 5-HT2BR; assay: 5-HT2BR binding affinity (Ki), Table 8
[8] = system: wild-type (WT) and vesicular monoamine transporter 2 (VMAT2) heterozygous (HET) mice; assay: Tail suspension test (immobility time) in wild-type and VMAT2 heterozygous mice; format: in vivo; conditions: 30 min after administration; for immobility time during the tail suspension test: compared to vehicle
Description: Tail suspension: This test was conducted as described in the literature (Acta Crystallographica Section D, 2010, 66:486-501). […] Immobility times were assessed over 6 min using MedAssociates software.

5-HT2AR [9] = molecular target: T3, 5-HT2AR; assay: Calcium flux assay (FLIPR, Fluo-4), 5-HT2AR stable cell line; format: cell-based; conditions: for 5-HT2AR Rmax ± S.E.M: value in parentheses
[10] = bracketed value below EC50, read-out: 5-HT2AR pEC50 ± S.E.M (converted)
[11] = bracketed value below Ki, read-out: 5-HT2AR pKi ± S.E.M (converted)
[12] = bracketed value below Ki, read-out: 5-HT2BR pKi ± S.E.M (converted)
[13] = bracketed value below Ki, read-out: 5-HT2CR pKi ± S.E.M (converted)

SMILES | EC50 (5-HT2CR [3]; read-out: 5-HT2CR EC50) [nM] | EC50 (5-HT2BR [4]) [nM] | 5-HT2BR Rmax ± S.E.M (5-HT2BR [4]) | Ki (5-HT2CR [5]; read-out: 5-HT2CR Ki) [nM] | Ki (5-HT2AR [6]; read-out: 5-HT2AR Ki) [nM] | Ki (5-HT2BR [7]; read-out: 5-HT2BR Ki) [nM] | EC50 (5-HT2AR [9]; [10]) [nM] | 5-HT2AR Rmax ± S.E.M (5-HT2AR [9]) | 5-HT2CR EC50 (5-HT2CR [3]) | Ki (5-HT2AR [6]; [11]) [nM] | 5-HT2AR EC50 (5-HT2AR [9]) | further results
CCN(CC)C(=O)[C@@H]1C=C2c3cccc4[nH]cc(c34)C[C@H]2N(C)C1 [LSD, reference compound] | – | – | – | – | – | – | – | – | – | – | – | head twitch responses (HTRs) (C57BL/6J mice [1]; 0.3 mg/kg LSD): stimulated; distance travelled in the open field, locomotion post injection (31-60 min) (C57BL/6J mice [2]; 0.3 mg/kg LSD): significantly higher
C[C@@H]1C=C(c2c[nH]c3ncccc23)CN(C)C1 [compound 33, (R)-3-(1,5-dimethyl-1,2,5,6-tetrahydropyridin-3-yl)-1H-pyrrolo[2,3-b]pyridine] | 3250 | 700 | (50.5% | 480 | 880 | 440 | 110 | (73.3% | – | – | – | 5-HT2CR Rmax ± S.E.M (5-HT2CR [3]): (51.7%; head twitch responses (HTRs) (C57BL/6J mice [1]; 1 mg/kg): neither 38 nor 33 induced substantial HTRs; also recorded: not different from each other; immobility time during the tail suspension test, HET mice versus WTs given the same treatment ([8]; 1 mg/kg i.p., p=0.051): less time immobile; immobility time during the tail suspension test ([8]; VMAT2 HET mice, 0.5 mg/kg i.p.): reduced immobility time significantly; immobility time during the tail suspension test ([8]; VMAT2 HET mice, 1 mg/kg i.p., 1 mg/kg): restored wild-type levels of mobility; also recorded: reduced immobility time significantly; immobility time during the tail suspension test ([8]; WT mice, 0.5 mg/kg i.p.): no effects; immobility time during the tail suspension test ([8]; WT mice, 1 mg/kg i.p.): no effects; distance travelled in the open field, locomotion post injection (31-60 min) (C57BL/6J mice [2]; 1 mg/kg): do not enhance locomotion; also recorded: not different from one another
Cc1ncc(CCN2CC(c3c[nH]c4ncccc34)=C[C@@H](C)C2)cn1 [compound 40, (R)-3-(5-methyl-1-(2-(2-methylpyrimidin-5-yl)ethyl)-1,2,5,6-tetrahydropyridin-3-yl)-1H-pyrrolo[2,3-b]pyridine] | – | 3820 | (54.5% | 840 | – | 4090 | – | – | antagonist | 398 | antagonist | Ki (5-HT2BR [7]; [12]): 3980 nM
Cc1ncc(CCN2CC(c3c[nH]c4ncccc34)=C[C@H](C)C2)cn1 [compound 41, (S)-3-(5-methyl-1-(2-(2-methylpyrimidin-5-yl)ethyl)-1,2,5,6-tetrahydropyridin-3-yl)-1H-pyrrolo[2,3-b]pyridine] | – | – | – | 30 | 25 | 820 | – | – | antagonist | 25.7 | antagonist | 5-HT2BR EC50 (5-HT2BR [4]): antagonist; Ki (5-HT2CR [5]; [13]): 28.8 nM
C[C@@H]1C=C(c2c[nH]c3ncccc23)CN(CC2CC2)C1 [compound 45, (R)-3-(1-(cyclopropylmethyl)-5-methyl-1,2,5,6-tetrahydropyridin-3-yl)-1H-pyrrolo[2,3-b]pyridine] | – | – | – | 4410 | 2920 | > 10000 | 457 | (25.0% | antagonist | 2880 | – | 5-HT2BR EC50 (5-HT2BR [4]): antagonist; EC50 (5-HT2AR [9]; read-out: 5-HT2AR EC50): 450 nM
C[C@H]1C=C(c2c[nH]c3ncccc23)CN(CC2CC2)C1 [compound 46, (S)-3-(1-(cyclopropylmethyl)-5-methyl-1,2,5,6-tetrahydropyridin-3-yl)-1H-pyrrolo[2,3-b]pyridine] | – | 1170 | (43.8% | 780 | 2440 | 2140 | – | – | antagonist | – | antagonist | –
C[C@@H]1C=C(c2c[nH]c3ncccc23)CN(Cc2cnco2)C1 [compound 47, (R)-5-((3-methyl-5-(1H-pyrrolo[2,3-b]pyridin-3-yl)-3,6-dihydropyridin-1(2H)-yl)methyl)oxazole] | > 10000 | 940 | (75.8% | > 10000 | 7190 | > 10000 | 977 | (68.3% | – | – | – | EC50 (5-HT2AR [9]; read-out: 5-HT2AR EC50): 990 nM
C1=C(c2c[nH]c3ncccc23)CNCC1 [compound 49, 3-(1,2,5,6-tetrahydropyridin-3-yl)-1H-pyrrolo[2,3-b]pyridine] | 820 | 630 | (34.8% | – | – | – | 151 | (43.9% | – | 398 | – | EC50 (5-HT2CR [3]; bracketed value below EC50, read-out: 5-HT2CR pEC50 ± S.E.M (converted)): 832 nM; 5-HT2CR Rmax ± S.E.M (5-HT2CR [3]): (45.9%; Ki (5-HT2CR [5]; [13]): 288 nM; Ki (5-HT2BR [7]; [12]): 257 nM
